What was measured:
IRAK4 [1] = target: T1, IRAK4 (Homo sapiens, UniProt Q9NWZ3); assay: IRAK4 Degradation Assay with Human Serum (Karpas299, HTRF/TR-FRET); assay type: cell-based; conditions: Karpas-299 in human serum, 24 hrs treatment; for DC50: read-out: IRAK4 degradtion with human serum assay DC50; for Dmax: read-out: IRAK4 degradtion with human serum assay Dmax (%)
T1 construct: endogenous in cells; host or cells: Karpas299
T1 sequence (Q9NWZ3 1-460): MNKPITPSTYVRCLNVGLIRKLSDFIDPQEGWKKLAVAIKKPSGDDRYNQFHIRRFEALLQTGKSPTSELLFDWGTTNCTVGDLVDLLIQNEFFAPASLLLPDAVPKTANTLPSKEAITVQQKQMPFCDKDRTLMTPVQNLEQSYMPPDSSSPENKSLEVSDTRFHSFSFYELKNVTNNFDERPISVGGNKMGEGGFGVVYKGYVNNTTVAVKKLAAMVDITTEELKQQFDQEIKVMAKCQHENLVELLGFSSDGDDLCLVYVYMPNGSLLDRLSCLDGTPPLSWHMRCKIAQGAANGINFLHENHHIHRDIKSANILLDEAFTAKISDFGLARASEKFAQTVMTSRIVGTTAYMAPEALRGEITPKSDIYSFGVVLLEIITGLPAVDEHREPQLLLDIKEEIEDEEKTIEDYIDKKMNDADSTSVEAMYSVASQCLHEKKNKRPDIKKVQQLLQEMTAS
In short: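 Remaining IRAK4 measured by TR-FRET immunoassay on lysates of Karpas299 cells exposed 24 h to compound dilution series in human serum AB. DC50 derived from a Hill-slope fit of % degradation versus concentration.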

IRAK4 [2] = target: T1, IRAK4; assay: IRAK4 Degradation Assay (Karpas299, HTRF/TR-FRET); assay type: cell-based; conditions: Karpas-299 cells; for Dmax: maximum percentage of degradation
In short: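 Compound potency as DC50 (IC50) came from four-parameter fits of percent IRAK4 degradation. IRAK4 was measured by HTRF (665/620 nm) in lysates of Karpas299 cells seeded at 0.2 million per well. Cells had been treated with compound dilutions for 5 or 24 h.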

[3] = 24 h treatment, read-out: IRAK4 in Karpas-299 (24 h) Dmax (%)
[4] = 24 h treatment, read-out: IRAK4 in Karpas-299 (24 h) DC50

| Compound | DC50 (IRAK4 [1]) [nM] | Dmax (IRAK4 [1]) [%] | Dmax (IRAK4 [2]; [3]) [%] | DC50 (IRAK4 [2]; [4]) [nM] | Dmax (IRAK4 [2]; 5 h treatment, read-out: IRAK4 in Karpas-299 (5 h) Dmax (%)) [%] | DC50 (IRAK4 [2]; 5 h treatment, read-out: IRAK4 in Karpas-299 (5 h) DC50) [nM] |
| --- | --- | --- | --- | --- | --- | --- |
| C[C@@H]1CN([C@H]2C[C@@H](c3cc(F)c([C@H]4CCC(=O)NC4=O)c(F)c3)C2)CCN1[C@H]1CC[C@H](n2cc3cc(NC(=O)c4ccc5cc(C#N)cnn45)c(C(C)(C)O)cc3n2)CC1 [Example 365, 3-cyano-N-(2-((1R,4r)-4-((R)-4-((1S,3S)-3-(4-((R)-2,6-dioxopipendin-3-yl)-3,5-difluorophenyl)cyclobutyl)-2-methylpiperazin-1-yl)cyclohexyl)-6-(2-hydroxypropan-2-yl)-2H-indazol-5-yl)pyrrolo[1,2-b]pyridazine-7-carboxamide] | 7.7 | 93 | 93 | 1.1 | – | – |
| CC(C)(O)c1cc2nn([C@H]3CC[C@H](N4CCN(CC5CN(c6cc(F)c([C@H]7CCC(=O)NC7=O)c(F)c6)C5)C[C@@H]4CO)CC3)cc2cc1NC(=O)c1ccc2cc(C#N)cnn12 [Example 400, 3-cyano-N-(2-((1R,4r)-4-((R)-4-((1-(4-((R)-2,6-dioxopiperidin-3-yl)-3,5-difluorophenyl)azetidin-3-yl)methyl)-2-(hydroxymethyl)piperazin-1-yl)cyclohexyl)-6-(2-hydroxypropan-2-yl)-2H-indazol-5-yl)pyrrolo[1,2-b]pyridazine-7-carboxamide] | 3.8 | 97 | 97 | 0.5 | – | – |
| CC(C)(O)c1cc2nn([C@H]3CC[C@H](N4CCN(CC5CN(c6cc(F)c(N7CCC(=O)NC7=O)c(F)c6)C5)CC4)CC3)cc2cc1NC(=O)c1ccc2cc(C#N)cnn12 [Example 108, 3-cyano-N-(2-((1r,4r)-4-(4-((1-(4-(2,4-dioxotetrahydropyrimidin-1(2H)-yl)-3,5-difluorophenyl)azetidin-3-yl)methyl)piperazin-1-yl)cyclohexyl)-6-(2-hydroxypropan-2-yl)-2H-indazol-5-yl)pyrrolo[1,2-b]pyridazine-7-carboxamide] | 28 | 94 | 97 | 3.9 | – | – |
| CC(C)(O)c1cc2nn([C@H]3CC[C@H](N4CCN(CCNc5cc(F)c(C6CCC(=O)NC6=O)c(F)c5)CC4)CC3)cc2cc1NC(=O)c1ccc2cc(C#N)cnn12 (stereo partly shown) [Example 135, 3-cyano-N-(2-((1r,4r)-4-(4-(2-((4-(2,6-dioxopiperidin-3-yl)-3,5-difluorophenyl)amino)ethyl)piperazin-1-yl)cyclohexyl)-6-(2-hydroxypropan-2-yl)-2H-indazol-5-yl)pyrrolo[1,2-b]pyridazine-7-carboxamide] | 7.1 | 100 | 98 | 1.1 | 93 | 1.6 |
| COC[C@@H]1CN(C[C@@H]2CCN(c3cc(F)c([C@H]4CCC(=O)NC4=O)c(F)c3)C2)CCN1[C@H]1CC[C@H](n2cc3cc(NC(=O)c4ccc5cc(C#N)cnn45)c(C(C)(C)O)cc3n2)CC1 [Example 388, 3-cyano-N-(2-((1S,4r)-4-((S)-4-(((S)-1-(4-((R)-2,6-dioxopiperidin-3-yl)-3,5-difluorophenyl)pyrrolidin-3-yl)methyl)-2-(methoxymethyl)piperazin-1-yl)cyclohexyl)-6-(2-hydroxypropan-2-yl)-2H-indazol-5-yl)pyrrolo[1,2-b]pyridazine-7-carboxamide] | 12 | 98 | 97 | 1.1 | – | – |
| CC(C)(O)c1cc2nn([C@H]3CC[C@H](N4CCN(C5CN(c6cc(F)c([C@H]7CCC(=O)NC7=O)c(F)c6)C5)CC4)CC3)cc2cc1NC(=O)c1coc2cccnc12 [Example 404, N-(2-((1R,4r)-4-(4-(1-(4-((R)-2,6-dioxopiperidin-3-yl)-3,5-difluorophenyl)azetidin-3-yl)piperazin-1-yl)cyclohexyl)-6-(2-hydroxypropan-2-yl)-2H-indazol-5-yl)furo[3,2-b]pyridine-3-carboxamide] | 5.4 | 94 | 93 | 0.8 | – | – |
| C[C@@H]1CN(C(=O)C2CN(c3cc(F)c(N4CCC(=O)NC4=O)c(F)c3)C2)CCN1[C@H]1CC[C@H](n2cc3cc(NC(=O)c4ccc5cc(C#N)cnn45)c(C(C)(C)O)cc3n2)CC1 [Example 303, 3-cyano-N-(2-((1R,4r)-4-((R)-4-(1-(4-(2,4-dioxotetrahydropyrimidin-1(2H)-yl)-3,5-difluorophenyl)azetidine-3-carbonyl)-2-methylpiperazin-1-yl)cyclohexyl)-6-(2-hydroxypropan-2-yl)-2H-indazol-5-yl)pyrrolo[1,2-b]pyridazine-7-carboxamide] | 16 | 101 | 101 | 0.4 | – | – |
| CC(C)(O)c1cc2nn([C@H]3CC[C@H](N4CCN(C(=O)C5CCN(c6cc(F)c([C@H]7CCC(=O)NC7=O)c(F)c6)CC5)CC4)CC3)cc2cc1NC(=O)c1ccc2cc(C#N)cnn12 [Example 291] | 48 | 97 | 97 | 0.6 | – | – |
| CC(C)(O)c1cc2nn([C@H]3CC[C@H](N4CCN(CC5CN(c6cc(F)c([C@H]7CCC(=O)NC7=O)c(F)c6)C5)CC4)CC3)cc2cc1NC(=O)c1coc2cccnc12 [Example 403, N-(2-((1r,4r)-4-(4-((1-(4-((R)-2,6-dioxopiperidin-3-yl)-3,5-difluorophenyl)azetidin-3-yl)methyl)piperazin-1-yl)cyclohexyl)-6-(2-hydroxypropan-2-yl)-2H-indazol-5-yl)furo[3,2-b]pyridine-3-carboxamide] | 3.5 | 99 | 96 | 0.7 | – | – |
| COc1cc2nn([C@H]3CC[C@H](N4CCN(CCc5cc(F)c([C@H]6CCC(=O)NC6=O)c(F)c5)CC4)CC3)cc2cc1NC(=O)c1ccc2cc(C#N)cnn12 [Example 337, 3-cyano-N-(2-((1R,4r)-4-(4-(4-((R)-2,6-dioxopiperidin-3-yl)-3,5-difluorophenethyl)piperazin-1-yl)cyclohexyl)-6-methoxy-2H-indazol-5-yl)pyrrolo[1,2-b]pyridazine-7-carboxamide] | 10 | 89 | 96 | 2.1 | – | – |
| Cc1nc(C2CCC(=O)NC2=O)ccc1N1CCC(N2CCN(C34CC(n5cc6cc(NC(=O)c7ccc8cc(C#N)cnn78)c(C(C)(C)O)cc6n5)(C3)C4)CC2)CC1 (stereo not shown) [Example 419, 3-cyano-N-(2-(3-(4-(1-(6-(2,6-dioxopiperidin-3-yl)-2-methylpyridin-3-yl)piperidin-4-yl)piperazin-1-yl)bicyclo[1.1.1]pentan-1-yl)-6-(2-hydroxypropan-2-yl)-2H-indazol-5-yl)pyrrolo[1,2-b]pyridazine-7-carboxamide] | 4 | 97 | 97 | 1.6 | – | – |
| CC(C)(O)c1cc2nn([C@H]3CC[C@H](N4CCN(C[C@H]5C[C@@H](c6cc(F)c([C@H]7CCC(=O)NC7=O)c(F)c6)C5)CC4)CC3)cc2cc1NC(=O)c1ccc2cc(C#N)cnn12 [Example 383, 3-cyano-N-(2-((1R,4r)-4-(4-(((1S,3S)-3-(4-((R)-2,6-dioxopiperidin-3-yl)-3,5-difluorophenyl)cyclobutyl)methyl)piperazin-1-yl)cyclohexyl)-6-(2-hydroxypropan-2-yl)-2H-indazol-5-yl)pyrrolo[1,2-b]pyridazine-7-carboxamide] | 5.8 | 93 | 94 | 1.6 | – | – |
| CC(C)(O)c1cc2nn(C3CCN([C@@H]4CCN(CCc5cc(F)c([C@H]6CCC(=O)NC6=O)c(F)c5)CC4(F)F)CC3)cc2cc1NC(=O)c1ccc2cc(C#N)cnn12 [Example 340, 3-cyano-N-(2-((R)-1′-(4-((R)-2,6-dioxopiperidin-3-yl)-3,5-difluorophenethyl)-3′,3′-difluoro-[1,4′-bipiperidin]-4-yl)-6-(2-hydroxypropan-2-yl)-2H-indazol-5-yl)pyrrolo[1,2-b]pyridazine-7-carboxamide] | 16 | 97 | 98 | 3.4 | – | – |
| CC(C)(O)c1cc2nn([C@H]3CC[C@H](N4CCN(C(=O)C5CN(c6cc(F)c([C@H]7CCC(=O)NC7=O)c(F)c6)C5)CC4=O)CC3)cc2cc1NC(=O)c1ccc2cc(C#N)cnn12 [Example 199, 3-cyano-N-(2-((1r,4r)-4-(4-(1-(4-((R)-2,6-dioxopiperidin-3-yl)-3,5-difluorophenyl)azetidine-3-carbonyl)-2-oxopiperazin-1-yl)cyclohexyl)-6-(2-hydroxypropan-2-yl)-2H-indazol-5-yl)pyrrolo[1,2-b]pyridazine-7-carboxamide] | 22 | 95 | 99 | 0.4 | – | – |
